In patent publication US9926319B2, “Pyridyl piperidines” (MERCK PATENT GMBH, priority 2014, dated 2018):
pIC50: −log10 of the molar value.

Columns and labels:
Wnt pathway = test: Cellular assay for Wnt pathway activity (luciferase reporter cell based assay); details: 24 h, HEK293 luciferase reporter cell line (ER-DSH, TCF dependent promoter), induced with estrogen (1 μM), read-out: 7df3 IC50
[1] = CLint (intrinsic clearance) assay, microsomal incubation; format: in vitro ADME, Human; details: NADPH, 37° C., up to 30 min; for microsomal CLint at 0.8 μM: human, liver microsomes, pH 7.4, human liver microsomes 0.5 mg/mL protein
Protocol: 2. CLint (Intrinsic Clearance) Assay
A Tecan Genesis workstation (RWS ASY 150/8) was used to perform the microsomal incubations. Analysis was carried out using a Waters ACQUITY UPLC system coupled to an ABSciex API3000 mass spectrometer. Data analysis was performed using Assay Explorer (Symyx).
0.1 M potassium phosphate buffer pH 7.4 containing 1 mM MgCl2
15 mM NADPH in phosphate buffer
5.0 mg protein/mL liver microsomes in phosphate buffer
Each experiment consists of 12 test and 2 reference compounds. The reference compounds are incubated as a cocktail.
Dilution of test compounds was done in 2 steps from a 10 mM DMSO stock solution. First 4 μL stock solution was added to 196 μL of 20% DMSO in potassium phosphate buffer pH 7.4. In a second step 10 μL of the first dilution were added to […] potassium phosphate buffer and 100 μL internal standard solution to a final concentration of 0.8 μM. 100 μL of the final compound dilution were aliquoted into a 96 deep well plate. 12.5 μL liver microsomes were added to each well (0.5 mg/mL final protein concentration) and the samples preincubated for 5 min at 37° C. and 800 rpm agitation.
After the preincubation, 250 μL cold acetonitrile were added to the 0 min samples to prevent a reaction. Following this, 12.5 μL NADPH solution were added to all wells to start the incubation, with the exception of the 0 min and 30 min controls without cofactor, where the NADPH was substituted for phosphate buffer.
The incubations were stopped after 5, 10, 20 and 30 min by adding 250 μL cold acetonitrile to the individual wells.
The quenched samples were then centrifuged at 4000 g for 1 h at 4° C. 100 μL of the supernatant were transferred into 96 well plates for analysis.
The metabolic stability of each compound was determined by measurement of the change in LC-MS/MS peak area over time. Assay Explorer software was used to automatically calculate the slope k of the decline. The intrinsic clearance (CLint) of each compound was then calculated according to the formula: CLint(μL/min/mg protein)=k1000/protein concentration.
CLint is shown for each compound in Table 3 below.

| pIC50 (Wnt pathway) | microsomal CLint at 0.8 μM [1] [µL/min/mg] | Human Clint ([1]; human liver microsomes 0.5 mg/mL protein) [µL/min/mg] | SMILES |
| --- | --- | --- | --- |
| 8.33 | 20 | – | CN1c2ccc(-c3cncc(Cl)c3N3CCC4(CC3)NCNC4=O)cc2CS1(=O)=O [Example 75, 8-[3-Chloro-5-(1-methyl-2,2-dioxo-2,3-dihydro-1H-2l6-benzo[c]isothiazol-5-yl)-pyridin-4-yl]-1,3,8-triaza-spiro[4.5]decan-4-one] |
| 7.89 | 27 | – | CN1c2ccc(-c3cncc(Cl)c3N3CCC4(CC3)CC(=O)NN4)cc2CS1(=O)=O [Example 30, 8-[3-Chloro-5-(1-methyl-2,2-dioxo-2,3-dihydro-1H-2l6-benzo[c]isothiazol-5-yl)-pyridin-4-yl]-1,2,8-triaza-spiro[4.5]decan-3-one] |
| 7.74 | 32 | – | O=C1NCC2(CCN(c3c(Cl)cncc3-c3ccc(-c4cnn([C@H]5CCC[C@@H]5O)c4)cc3)CC2)O1 (racemic) [Example 57, 8-(3-Chloro-5-{4-[1-((1S,2S)-2-hydroxy-cyclopentyl)-1H-pyrazol-4-yl]-phenyl}-pyridin-4-yl)-1-oxa-3,8-diaza-spiro[4.5]decan-2-one] |
| 7.68 | < 10 | – | CC1=NC(=O)C2(CCN(c3c(Cl)cncc3-c3ccc4c(cnn4C)c3)CC2)N1 [Example 19, 8-[3-Chloro-5-(1-methyl-1H-indazol-5-yl)-pyridin-4-yl]-2-methyl-1,3,8-triaza-spiro[4.5]dec-2-en-4-one] |
| 7.82 | < 10 | – | Cn1ncc2ccc(-c3cncc(Cl)c3N3CCC4(CC3)CC(=O)NC4=O)cc21 [Example 66, 8-[3-Chloro-5-(1-methyl-1H-indazol-6-yl)-pyridin-4-yl]-2,8-diaza-spiro[4.5]decane-1,3-dione] |
| 7.41 | 49 | – | COC(=O)Nc1n[nH]c2cc(-c3cncc(Cl)c3N3CCC4(CCNC4=O)CC3)ccc12 [Example 23, {6-[5-Chloro-4-(1-oxo-2,8-diaza-spiro[4.5]dec-8-yl)-pyridin-3-yl]-1H-indazol-3-yl}-carbamic acid methyl ester] |
| 7.85 | 33 | – | Cn1cc2cc(-c3cncc(Cl)c3N3CCC4(CCNC4=O)CC3)ccc2n1 [Example 92, 8-[3-Chloro-5-(2-methyl-2H-indazol-5-yl)-pyridin-4-yl]-2,8-diaza-spiro[4.5]decan-1-one] |
| 8.49 | < 10 | – | Cn1cc(-c2ccc(-c3cncc(Cl)c3N3CCC4(CC3)NCNC4=O)cc2)cn1 [Example 88, 8-{3-Chloro-5-[4-(1-methyl-1H-pyrazol-4-yl)-phenyl]-pyridin-4-yl}-1,3,8-triaza-spiro[4.5]decan-4-one] |
| 7.30 | 11 | – | CC(C)(O)Cn1cc(-c2ccc(-c3cncc(Cl)c3N3CCC4(CC3)CNC(=O)O4)cc2)cn1 [Example 43, 8-(3-Chloro-5-{4-[1-(2-hydroxy-2-methyl-propyl)-1H-pyrazol-4-yl]-phenyl}-pyridin-4-yl)-1-oxa-3,8-diaza-spiro[4.5]decan-2-one] |
| 8.89 | 60 | – | Cn1nc(N)c2ccc(-c3cncc(Cl)c3N3CCC4(CC3)CC(=O)NC4=O)cc21 [Example 28, 8-[3-(3-Amino-1-methyl-1H-indazol-6-yl)-5-chloro-pyridin-4-yl]-2,8-diaza-spiro[4.5]decane-1,3-dione] |
| 7.46 | < 10 | – | O=C1NCCNC12CCN(c1c(Cl)cncc1-c1ccc3oc(=O)[nH]c3c1)CC2 [Example 72, 9-[3-Chloro-5-(2-oxo-2,3-dihydro-benzooxazol-5-yl)-pyridin-4-yl]-1,4,9-triaza-spiro[5.5]undecan-5-one] |
| 8.21 | 23 | – | O=C1NCC2(CCN(c3c(Cl)cncc3-c3ccc(-c4cnn(C5CC5)c4)cc3)CC2)O1 [Example 60, 8-{3-Chloro-5-[4-(1-cyclopropyl-1H-pyrazol-4-yl)-phenyl]-pyridin-4-yl}-1-oxa-3,8-diaza-spiro[4.5]decan-2-one] |
| 7.82 | < 10 | – | O=C1CC2(CCN(c3c(Cl)cncc3-c3ccc4c(c3)CS(=O)(=O)N4)CC2)C(=O)N1 [Example 84, 8-[3-Chloro-5-(2,2-dioxo-2,3-dihydro-1H-2l6-benzo[c]isothiazol-5-yl)-pyridin-4-yl]-2,8-diaza-spiro[4.5]decane-1,3-dione] |
| 9.80 | 13 | – | CN1c2ccc(-c3cncc(Cl)c3N3CCC4(CC3)CC(=O)NC4=O)cc2CS1(=O)=O [Example 87, 8-[3-Chloro-5-(1-methyl-2,2-dioxo-2,3-dihydro-1H-2l6-benzo[c]isothiazol-5-yl)-pyridin-4-yl]-2,8-diaza-spiro[4.5]decane-1,3-dione] |
| 7.96 | – | 11 | Cn1cc(-c2ccc(-c3cncc(Cl)c3N3CCC4(CC3)NC(=O)CNC4=O)cc2)cn1 [Example 17, 9-{3-Chloro-5-[4-(1-methyl-1H-pyrazol-4-yl)-phenyl]-pyridin-4-yl}-1,4,9-triaza-spiro[5.5]undecane-2,5-dione] |
| 8.62 | 57 | – | CN1c2ccc(-c3cncc(Cl)c3N3CCC4(CC3)C[C@@H](C(F)(F)F)NC4=O)cc2CS1(=O)=O [Example 42, (S)-8-[3-Chloro-5-(1-methyl-2,2-dioxo-2,3-dihydro-1H-2l6-benzo[c]isothiazol-5-yl)-pyridin-4-yl]-3-trifluoromethyl-2,8-diaza-spiro[4.5]decan-1-one] |
| 7.72 | 49 | – | O=C1Cc2ccc(-c3cncc(Cl)c3N3CCC4(CCNC4=O)CC3)cc2N1 [Example 64, 8-[3-Chloro-5-(2-oxo-2,3-dihydro-1H-indol-6-yl)-pyridin-4-yl]-2,8-diaza-spiro[4.5]decan-1-one] |
| 8.15 | 37 | – | Cn1ncc2cc(-c3cncc(Cl)c3N3CCC(N)(C(N)=O)CC3)ccc21 [Example 83, 4-Amino-5′-chloro-3′-(1-methyl-1H-indazol-5-yl)-3,4,5,6-tetrahydro-2H-[1,4′]bipyridinyl-4-carboxylic acid amide] |
| 7.92 | 49 | – | Cn1cc(-c2ccc(-c3cncc(Cl)c3N3CCC4(CC3)NCCNC4=O)cc2)cn1 [Example 71, 9-{3-Chloro-5-[4-(1-methyl-1H-pyrazol-4-yl)-phenyl]-pyridin-4-yl}-1,4,9-triaza-spiro[5.5]undecan-5-one] |
| 8.47 | 11 | – | Cn1ncc2cc(-c3cncc(Cl)c3N3CCC4(CC3)CC(=O)NC4=O)ccc21 [Example 1, 8-[3-Chloro-5-(1-methyl-1H-indazol-5-yl)-pyridin-4-yl]-2,8-diaza-spiro[4.5]decane-1,3-dione] |
| 10.70 | 70 | – | CCC1=NNC(=O)C12CCN(c1c(Cl)cncc1-c1ccc3c(c1)CS(=O)(=O)N3C)CC2 [Example 52, 8-[3-Chloro-5-(1-methyl-2,2-dioxo-2,3-dihydro-1H-2l6-benzo[c]isothiazol-5-yl)-pyridin-4-yl]-4-ethyl-2,3,8-triaza-spiro[4.5]dec-3-en-1-one] |
| 8.37 | 35 | – | C[C@@H]1NC(=O)OC12CCN(c1c(Cl)cncc1-c1ccc3c(c1)CS(=O)(=O)N3C)CC2 [Example 98, (S)-8-[3-Chloro-5-(1-methyl-2,2-dioxo-2,3-dihydro-1H-2l6-benzo[c]isothiazol-5-yl)-pyridin-4-yl]-4-methyl-1-oxa-3,8-diaza-spiro[4.5]decan-2-one] |
